Laboratory results reported in US10730886B2, “Compound having effect of inhibiting platelet aggregation and salt thereof, and composition for preventing or treating thrombotic diseases, containing same” (SHIN POONG PHARMACEUTICAL CO., LTD., priority 2015, dated 2020).

What was measured:
[1] = tested on: thrombin-induced platelet aggregation, Human PRP; assay: Thrombin-induced platelet aggregation in human PRP (lumi-aggregometer); type: cell-based; conditions: thrombin 0.6-0.8 U/ml;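 further: aggregation recorded for 5 min after thrombin addition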
Experimental: (§1) To investigate whether the candidate substance has inhibition selectivity for shear-stress-induced platelet aggregation, which is by a physical stimulus, […] experiment was conducted by activating platelets with physiological agonists—i.e., thrombin, collagen and ADP—to study the inhibitory effect of the candidate substance.
(§2) Human PRP (598.8 μl) was treated with 1.2 μl of the candidate substance per concentration (25, 100, 250 μM) and reacted at 37° C. for 3 minutes using a thermomixer. Then, PRP (495 μl) was put in the aggregometer cuvette and preincubated for 1 minute, followed by treatment with platelet aggregation-inducing reagent, thrombin (0.6-0.8 U/ml), collagen (2-5 μg/ml), or ADP (adenosine diphosphate, 15-20 μM) at the minimum concentration causing maximum aggregation. The degree of aggregation of the platelets was measured by a turbidity change using a lumi-aggregometer (Chrono-Log Co., USA). The turbidity of the PRP was considered as 0%, and the turbidity of the PPP was considered as 100%. During the measurement, the reaction mixture was continuously stirred at 1,000 rpm with a silicone-coated magnetic stir bar.

[2] = tested on: collagen-induced platelet aggregation, Human PRP; assay: Collagen-induced platelet aggregation in human PRP (lumi-aggregometer); type: cell-based; conditions: collagen 2-5 μg/ml
Experimental: as §1, §2

plasma [3] = assay: Plasma coagulation time, Activated Partial Thromboplastin Time (aPTT); type: biochemical; conditions: plasma treated 3 minutes
Experimental: (§3) In order to separate plasma, blood was collected with 3.2% sodium citrate as an anticoagulant. Whole blood was centrifuged at 2000 g for 20 minutes to obtain plasma. After treating the plasma with the test substances for 3 minutes, plasma coagulation time was measured. For plasma coagulation time, Activated Partial Thromboplastin Time (aPTT) and Prothrombin Time (PT) were measured using BBL® Fibrometer (Becton Dickinson, Cockeysville, Md.). For measurement of aPTT, the plasma was treated with aPTT reagents in fibrometer cup and reacted at 37° C. for 3 min. After the reaction, CaCl2 was added and blood coagulation time was measured immediately. For the measurement of PT, PT reagent was added to warmed plasma, and blood coagulation time was measured immediately. DTI, known to prolong plasma coagulation time, was used as a control.

plasma [4] = assay: Plasma coagulation time, Prothrombin Time (PT); type: biochemical; conditions: plasma treated 3 minutes
Experimental: as §3

[5] = 2-week repeat-dose toxicity study; type: in vivo; conditions: both sexes, mouse, in vivo; ICR mice, oral 100, 300, 1000 mg/kg once a day for 2 weeks; read-out: NOAEL (No observed adverse effect level)
Experimental: (§4) After oral administration of vehicle (0.5% methylcellulose) or the candidate substances at low dose, medium dose, and high dose (100, 300, 1000 mg/kg) to ICR mice (female, male, 18 to 26 g) once a day for 2 weeks, the NOAEL values of the candidate substances were calculated by observing and recording mortality, body weight change, clinical observations, food and drinking water consumption, gross necropsy findings, histopathological evaluation of abnormal organ, and organ weights.

ICR mice = assay: 2-week repeat-dose toxicity study; type: in vivo; conditions: oral 100, 300 and 1000 mg/kg once a day for 2 weeks
Experimental: as §4

ICR mouse = assay: Bleeding side effect by repeated administration (tail bleeding time); conditions: 50 mg/kg oral once daily for 7 days
Experimental: One hour after the last administration, the mice were anesthetized by breathing, and the 4 mm portion from the tail tip of the mice was cut. Then, the tail tip of the mice was immersed in a transparent 15-ml tube containing the pre-prepared 37° C. saline. The time when blood was not spread any more and the bleeding stopped was measured.

| Compound | Degree of platelet aggregation (%, Mean ± SEM) ([1]; 25 μM) [%] | Degree of platelet aggregation (%, Mean ± SEM) ([1]; 100 μM) [%] | Degree of platelet aggregation (%, Mean ± SEM) ([1]; 250 μM) [%] | Degree of platelet aggregation (%, Mean ± SEM) ([2]; 25 μM) [%] | Degree of platelet aggregation (%, Mean ± SEM) ([2]; 100 μM) [%] | Degree of platelet aggregation (%, Mean ± SEM) ([2]; 250 μM) [%] | plasma coagulation time - aPTT, Time (plasma [3]; 25 μM) [s] | plasma coagulation time - aPTT, Time (plasma [3]; 100 μM) [s] | plasma coagulation time - aPTT, Time (plasma [3]; 250 μM) [s] | plasma coagulation time - PT, Time (plasma [4]; 25 μM) [s] | plasma coagulation time - PT, Time (plasma [4]; 100 μM) [s] | plasma coagulation time - PT, Time (plasma [4]; 250 μM) [s] | NOAEL at 2 weeks [5] [mg/kg] | findings in body weight change, clinical observations, food and drinking water consumption, gross necropsy findings, and organ weights (ICR mice) | mortality (ICR mice) | Bleeding time (ICR mouse) [min] |
| --- | --- | --- | --- | --- | --- | --- | --- | --- | --- | --- | --- | --- | --- | --- | --- | --- |
| O=C(c1ccc(O)c(O)c1)N1CCc2sccc2C1 [Example 1, (6,7-Dihydrothieno[3,2-c]pyridin-5(4H)-yl)(3,4-dihydroxyphenyl)methanone] | 88.0 ± 2.1 | 88.7 ± 6.1 | 78.7 ± 1.8 | 84.3 ± 3.5 | 80.7 ± 10.2 | 84.3 ± 3.8 | 23.8 ± 1.9 | 24.8 ± 2.0 | 26.7 ± 0.8 | 10.8 ± 0.5 | 10.7 ± 0.8 | 11.0 ± 0.1 | – | – | – | – |
| COc1cc(C(=O)N2CCc3sccc3C2)ccc1O [Example 12, (6,7-Dihydrothieno[3,2-c]pyridin-5(4H)-yl)(4-hydroxy-3-methoxyphenyl)methanone] | 99.5 ± 7.5 | 95.0 ± 12.0 | 88.5 ± 4.5 | 83.0 ± 4.0 | 80.0 ± 2.0 | 87.5 ± 3.5 | 24.3 ± 0.1 | 26.7 ± 1.0 | 27.2 ± 2.0 | 10.9 ± 0.1 | 11.0 ± 0.5 | 10.5 ± 0.3 | – | – | – | – |
| CCc1occc(=O)c1OC(=O)c1ccc(O)c(OC)c1 [Example 13, 2-Ethyl-4-oxo-4H-pyran-3-yl 4-hydroxy-3-methoxybenzoate] | 92.5 ± 5.5 | 95.0 ± 12.0 | 88.5 ± 4.5 | 90.0 ± 3.0 | 79.5 ± 0.5 | 85.5 ± 3.5 | 24.7 ± 1.0 | 26.6 ± 1.8 | 27.5 ± 1.7 | 11.0 ± 0.3 | 10.6 ± 0.2 | 10.8 ± 0.3 | > 1000 | no abnormal findings were observed | no dead animals were observed | 1.6 ± 0.4 |
| COc1cc(C(=O)Oc2c(C)occc2=O)ccc1O [Example 14, 2-Methyl-4-oxo-4H-pyran-3-yl 4-hydroxy-3-methoxybenzoate] | 81.3 ± 2.5 | 84.0 ± 0.6 | 86.0 ± 4.6 | 82.0 ± 1.7 | 80.0 ± 1.7 | 92.0 ± 2.0 | 27.0 ± 0.4 | 26.7 ± 0.2 | 26.3 ± 1.7 | 10.1 ± 0.3 | 10.1 ± 0.0 | 11.1 ± 0.1 | > 1000 | no abnormal findings were observed | no dead animals were observed | 1.6 ± 0.3 |
| COc1ccc(NC(=O)c2ccc(O)c(OC)c2)c([N+](=O)[O-])c1 [Example 15, 4-Hydroxy-3-methoxy-N-(4-methoxy-2-nitrophenyl)benzamide] | 95.5 ± 3.5 | 100.5 ± 4.5 | 98.0 ± 3.0 | 86.0 ± 0.0 | 84.5 ± 4.5 | 83.5 ± 3.5 | 26.3 ± 2.3 | 26.6 ± 1.0 | 29.3 ± 0.5 | 10.7 ± 0.0 | 10.6 ± 0.2 | 10.9 ± 0.1 | – | – | – | – |
| O=C(c1cc(O)ccc1O)N1CCc2sccc2C1 [Example 20, (6,7-Dihydrothieno[3,2-c]pyridin-5(4H)-yl)(2,5-dihydroxyphenyl)methanone] | 84.0 ± 3.2 | 82.3 ± 3.7 | 82.0 ± 15.0 | 82.3 ± 5.8 | 81.3 ± 3.5 | 87.7 ± 2.0 | 24.9 ± 1.0 | 25.3 ± 0.6 | 25.8 ± 0.9 | 10.8 ± 0.4 | 10.2 ± 0.4 | 11.2 ± 0.4 | – | – | – | – |
| O=C(c1cc(O)ccc1O)N1CCC(c2noc3ccc(F)cc23)CC1 [Example 23, (2,5-Dihydroxyphenyl)(4-(5-fluorobenzo[d]isoxazol-3-yl)piperidin-1-yl)methanone] | 96.0 ± 4.0 | 88.5 ± 6.5 | 93.5 ± 1.5 | 82.0 ± 5.0 | 84.5 ± 4.5 | 83.5 ± 2.5 | 26.2 ± 0.2 | 29.5 ± 1.2 | 26.1 ± 0.2 | 10.3 ± 0.1 | 10.7 ± 0.2 | 10.8 ± 0.3 | – | – | – | – |
